Assays:
Fusarium culmorum = Fusarium culmorum (root rot), liquid culture growth inhibition in nutrient broth; format: cell-based; settings: PDB broth, 24 C, inhibition of growth determined photometrically after 48 hrs, read-out: control of fungal infection, Fusarium culmorum
Experimental: Mycelia fragments or conidia suspensions of a fungus, prepared either freshly from liquid cultures of the fungus or from cryogenic storage, are directly mixed into nutrient broth. DMSO solutions of the test compound (max. 10 mg/ml) is diluted with 0.025% Tween20 by factor 50 and 10 μl of this solution is pipetted into a microtiter plate (96-well format) and the nutrient broth containing the fungal spores/mycelia fragments is then added to give an end concentration of the tested compound. The test plates are incubated at 24° C. and 96% rH in the dark. The inhibition of fungal growth is determined photometrically after 2-6 days and antifungal activity is calculated.
Fusarium culmorum (root rot): Conidia of the fungus from cryogenic storage were directly mixed into nutrient broth (PDB potato dextrose broth). After placing a (DMSO) solution of the test compounds into a microtiter plate (96-well format) the nutrient broth containing the fungal spores was added. The test plates were incubated at 24 C and the inhibition of growth was determined photometrically after 48 hrs.

Pythium ultimum = Pythium ultimum (Damping off), liquid culture growth inhibition in potato dextrose broth; format: cell-based; settings: Globisporangium ultimum; 20 ppm; potato dextrose broth, 24° C.; inhibition of growth determined photometrically after 48 hours; read-out: control of fungal infection, Pythium ultimum
[1] = system: Puccinia recondita f.sp. tritici; assay: Puccinia recondita f.sp. tritici (wheat brown rust), wheat leaf segment assay, preventive; format: in vivo; settings: foliar, 216 h, 200 ppm, wheat leaf segments, assessed nine days after inoculation, read-out: control of fungal infection, Puccinia recondite f.sp. tritici
[2] = system: Erysiphe graminis f.sp. tritici; assay: Erysiphe graminis f.sp. tritici (wheat powdery mildew), wheat leaf segment assay, preventive; format: in vivo; settings: Blumeria graminis, foliar, 96 h; 200 ppm; wheat leaf segments; assessed four days after inoculation; read-out: control of fungal infection, Etysiphe graminis f.sp. tritici
Phytophthora infestans = assay: whole plant or invertebrate; format: in vivo; settings: in Solanum lycopersicum, foliar, 96 h, read-out: control of fungal infection, Phytophthora infestans
Plasmopara viticola = Plasmopara viticola (downy mildew of grapevine), grapevine leaf disk assay, preventive; format: in vivo; settings: foliar, 168 h, 200 ppm, grapevine leaf disks, assessed seven days after inoculation, read-out: control of fungal infection, Plasmopara viticola
Septoria nodorum = Septoria nodorum (wheat glume blotch), wheat leaf segment assay, preventive; format: in vivo; settings: Parastagonospora nodorum, foliar, 96 h; 200 ppm; wheat leaf segments; assessed four days after inoculation; read-out: control of fungal infection, Septoria nodorum
Septoria tritici = Septoria tritici (leaf blotch), liquid culture growth inhibition in nutrient broth; format: cell-based; settings: Zymoseptoria tritici; 200 ppm; PDB broth, 24 C; inhibition of growth determined photometrically after 72 hrs; read-out: control of fungal infection, Septoria tritici

CO/N=C(\C)C(C)(C)NC(=O)C(Oc1cc(C)c2ncc(Br)cc2c1)SC (stereo not drawn) [Compound No. 32, 2-(3-Bromo-8-methyl-quinolin-6-yloxy)-N-{2-[(E)-methoxyimino]-1,1-dimethyl-propyl}-2-methylsulfanyl-acetamide]
≥ 60%: inhibition of growth at 200 ppm (Fusarium culmorum) | inhibition of growth at 20 ppm (Pythium ultimum) | pest or weed control at 200 ppm [1] | pest or weed control at 200 ppm [2] | pest or weed control at 200 ppm (Phytophthora infestans) | pest or weed control at 200 ppm (Plasmopara viticola)

C#Cc1cnc2ccc(OC(SC)C(=O)NC3(C=NOC)CCC3)cc2c1 (stereo not drawn) [Compound No. 78, 2-(3-ethynyl-quinolin-6-yloxy)-N-[1-(methoxyimino-methyl)-cyclobutyl]-2-methylsulfanyl-acetamide]
≥ 60%: pest or weed control at 200 ppm (Septoria nodorum) | inhibition of growth at 200 ppm (Fusarium culmorum) | inhibition of growth at 20 ppm (Pythium ultimum) | pest or weed control at 200 ppm [1] | pest or weed control at 200 ppm (Phytophthora infestans) | pest or weed control at 200 ppm (Plasmopara viticola) | inhibition of growth at 200 ppm (Septoria tritici)

CON=CC1(NC(=O)C(Oc2ccc3ncc(I)cc3c2)SC)CCC1 (stereo not drawn) [Compound No. 79, 2-(3-Iodo-quinolin-6-yloxy)-N-[1-(methoxyimino-methyl)-cyclobutyl]-2-methylsulfanyl-acetamide]
≥ 60%: pest or weed control at 200 ppm (Septoria nodorum) | inhibition of growth at 200 ppm (Fusarium culmorum) | inhibition of growth at 20 ppm (Pythium ultimum) | pest or weed control at 200 ppm [1] | pest or weed control at 200 ppm [2] | pest or weed control at 200 ppm (Phytophthora infestans) | pest or weed control at 200 ppm (Plasmopara viticola) | inhibition of growth at 200 ppm (Septoria tritici)

C#Cc1cnc2ccc(OC(SC)C(=O)NC3(C=NO)CCC3)cc2c1 (stereo not drawn) [Compound No. 80, 2-(3-Ethynyl-quinolin-6-yloxy)-N-[1-(hydroxyimino-methyl)-cyclobutyl]-2-methylsulfanyl-acetamide]
≥ 60%: pest or weed control at 200 ppm (Septoria nodorum) | inhibition of growth at 200 ppm (Fusarium culmorum) | inhibition of growth at 20 ppm (Pythium ultimum) | pest or weed control at 200 ppm [1] | pest or weed control at 200 ppm [2] | pest or weed control at 200 ppm (Phytophthora infestans) | pest or weed control at 200 ppm (Plasmopara viticola) | inhibition of growth at 200 ppm (Septoria tritici)

CON=CCNC(=O)C(Oc1ccc2ncc(Br)cc2c1)SC (stereo not drawn) [Compound No. 93, 2-(3-Bromo-quinolin-6-yloxy)-N-(2-methoxyimino-ethyl)-2-methylsulfanyl-acetamide]
≥ 60%: pest or weed control at 200 ppm (Septoria nodorum) | inhibition of growth at 200 ppm (Fusarium culmorum) | pest or weed control at 200 ppm [1] | pest or weed control at 200 ppm [2] | pest or weed control at 200 ppm (Phytophthora infestans) | pest or weed control at 200 ppm (Plasmopara viticola) | inhibition of growth at 200 ppm (Septoria tritici)

CON=CC(C)NC(=O)C(Oc1ccc2ncc(Br)cc2c1)SC (stereo not drawn) [Compound No. 94, 2-(3-Bromo-quinolin-6-yloxy)-N-(2-methoxyimino-1-methyl-ethyl)-2-methylsulfanyl-acetamide]
≥ 60%: pest or weed control at 200 ppm (Septoria nodorum) | inhibition of growth at 200 ppm (Fusarium culmorum) | inhibition of growth at 20 ppm (Pythium ultimum) | pest or weed control at 200 ppm [1] | pest or weed control at 200 ppm [2] | pest or weed control at 200 ppm (Phytophthora infestans) | pest or weed control at 200 ppm (Plasmopara viticola) | inhibition of growth at 200 ppm (Septoria tritici)

CON=C(C)C(C)(C)NC(=O)C(Oc1ccc2ncc(Br)cc2c1)SC (stereo not drawn) [Compound No. 111, 2-(3-Bromo-quinolin-6-yloxy)-N-{2-[(E or Z)-methoxyimino]-1,1-dimethyl-propyl}-2-methylsulfanyl-acetamide]
≥ 60%: pest or weed control at 200 ppm (Septoria nodorum) | inhibition of growth at 200 ppm (Fusarium culmorum) | inhibition of growth at 20 ppm (Pythium ultimum) | pest or weed control at 200 ppm [1] | pest or weed control at 200 ppm (Phytophthora infestans) | pest or weed control at 200 ppm (Plasmopara viticola) | inhibition of growth at 200 ppm (Septoria tritici)

C#Cc1cnc2cc(F)c(OC(CC)C(=O)NC(C)(C)C=NOC)cc2c1 (stereo not drawn) [Compound No. 134, 2-(3-Ethynyl-7-fluoro-quinolin-6-yloxy)-N-(2-methoxyimino-1,1-dimethyl-ethyl)-butyramide]
≥ 60%: pest or weed control at 200 ppm (Septoria nodorum) | inhibition of growth at 200 ppm (Fusarium culmorum) | inhibition of growth at 20 ppm (Pythium ultimum) | pest or weed control at 200 ppm [1] | pest or weed control at 200 ppm [2] | pest or weed control at 200 ppm (Phytophthora infestans) | pest or weed control at 200 ppm (Plasmopara viticola) | inhibition of growth at 200 ppm (Septoria tritici)

C#Cc1cnc2c(C)cc(OC(CC)C(=O)NC(C)(C)C=NO)cc2c1 (stereo not drawn) [Compound No. 139, 2-(3-Ethynyl-8-methyl-quinolin-6-yloxy)-N-(2-hydroxyimino-1,1-dimethyl-ethyl)-butyramide]
≥ 60%: pest or weed control at 200 ppm (Septoria nodorum) | inhibition of growth at 200 ppm (Fusarium culmorum) | inhibition of growth at 20 ppm (Pythium ultimum) | pest or weed control at 200 ppm [1] | pest or weed control at 200 ppm [2] | pest or weed control at 200 ppm (Phytophthora infestans) | pest or weed control at 200 ppm (Plasmopara viticola) | inhibition of growth at 200 ppm (Septoria tritici)

CC#CCON=CC(C)(C)NC(=O)C(Oc1ccc2ncc(Br)cc2c1)SC (stereo not drawn) [Compound No. 141, 2-(3-Bromo-quinolin-6-yloxy)-N-(2-but-2-ynyloxyimino-1,1-dimethyl-ethyl)-2-methylsulfanyl-acetamide]
≥ 60%: inhibition of growth at 200 ppm (Fusarium culmorum) | inhibition of growth at 20 ppm (Pythium ultimum) | pest or weed control at 200 ppm [1] | pest or weed control at 200 ppm [2] | pest or weed control at 200 ppm (Phytophthora infestans) | pest or weed control at 200 ppm (Plasmopara viticola) | inhibition of growth at 200 ppm (Septoria tritici)

CSC(Oc1ccc2ncc(Br)cc2c1)C(=O)NC(C)(C)C=NOCCF (stereo not drawn) [Compound No. 142, 2-(3-Bromo-quinolin-6-yloxy)-N-[2-(2-fluoro-ethoxyimino)-1,1-dimethyl-ethyl]-2-methylsulfanyl-acetamide]
≥ 60%: inhibition of growth at 200 ppm (Fusarium culmorum) | inhibition of growth at 20 ppm (Pythium ultimum) | pest or weed control at 200 ppm [1] | pest or weed control at 200 ppm [2] | pest or weed control at 200 ppm (Phytophthora infestans) | pest or weed control at 200 ppm (Plasmopara viticola) | inhibition of growth at 200 ppm (Septoria tritici)

CCC(Oc1ccc2ncc(Br)cc2c1)C(=O)NC(C)(C)C=NOC (stereo not drawn) [Compound No. 144, 2-(3-Bromo-quinolin-6-yloxy)-N-(2-methoxyimino-1,1-dimethyl-ethyl)-butyramide]
≥ 60%: inhibition of growth at 200 ppm (Fusarium culmorum) | pest or weed control at 200 ppm [1] | pest or weed control at 200 ppm [2] | pest or weed control at 200 ppm (Phytophthora infestans) | pest or weed control at 200 ppm (Plasmopara viticola) | inhibition of growth at 200 ppm (Septoria tritici)

CCC(Oc1cc(Cl)c2ncc(Br)cc2c1)C(=O)NC(C)(C)C=NOC (stereo not drawn) [Compound No. 146, 2-(3-Bromo-8-chloro-quinolin-6-yloxy)-N-(2-methoxyimino-1,1-dimethyl-ethyl)-butyramide]
≥ 60%: pest or weed control at 200 ppm (Septoria nodorum) | inhibition of growth at 200 ppm (Fusarium culmorum) | inhibition of growth at 20 ppm (Pythium ultimum) | pest or weed control at 200 ppm [1] | pest or weed control at 200 ppm [2] | pest or weed control at 200 ppm (Phytophthora infestans) | pest or weed control at 200 ppm (Plasmopara viticola) | inhibition of growth at 200 ppm (Septoria tritici)

CCC(Oc1ccc2ncc(I)cc2c1)C(=O)NC(C)(C)C=NOCCF (stereo not drawn) [Compound No. 155, N-[2-(2-Fluoro-ethoxyimino)-1,1-dimethyl-ethyl]-2-(3-iodo-quinolin-6-yloxy)-butyramide]
≥ 60%: pest or weed control at 200 ppm (Septoria nodorum) | inhibition of growth at 200 ppm (Fusarium culmorum) | pest or weed control at 200 ppm [1] | pest or weed control at 200 ppm [2] | pest or weed control at 200 ppm (Phytophthora infestans) | pest or weed control at 200 ppm (Plasmopara viticola) | inhibition of growth at 200 ppm (Septoria tritici)
